# Measurements: publication PMC12430830, “Discovery of a Novel Cyclopeptide as Tyrosinase Inhibitor for Skin Lightening” (Skin Research and Technology, 2025)
# Values joined by “and” are separate entries in the source; they are usually repeats but may differ in a detail not shown here. Equal values may be shown once. Read-outs that look alike come from different tables or passages of the source.
# Experiments:
# human melanocyte cells [1] = test: Melanin content in melanocytes; type: cell-based; details: n = 3
# Protocol: (§1) Human melanocytes (Batch number: MC210817; Guangdong Biocell Biotechnology Co. Ltd.) were cultured in DMEM/F12 medium supplemented with 20% FBS (Hyclone) and 100 U/mL penicillin at 37°C with 5% CO2 atmosphere.
# Upon reaching 80%–90% confluence, human melanocyte cells were dissolved with 0.25% trypsin to create a single‐cell suspension. Then, the cells were seeded in 6‐well plates at 200 000 cells per well and cultured for 12 h in a 37°C humidified incubator (5% CO2, V/V). When the confluence of cells reached 40%–60%, they were incubated with specific peptides or the positive control for 24 h. Following the incubation period, the supernatant was removed and the adherent cells were washed with PBS before being dispersed using trypsin (700 µL/well, 0.25%). The dispersed cells were collected and centrifuged at 10 000 rpm for 10 min. The cell pellet from each well was then treated with a mixture of distilled water (200 µL), anhydrous ethanol (500 µL), and ether (500 µL). The mixture was vortexed and allowed to stand at room temperature for 20 min, followed by centrifugation at 3000 rpm for 5 min. The precipitate was dissolved in 1 mL of 1 M NaOH containing 10% DMSO, then incubated at 80°C in a water bath for 40 minutes. After incubation, the solution was transferred to a 96‐well culture plate for optical density measurement at 405 nm. Each analysis was performed in triplicate and results were expressed as mean ± standard deviation (SD).
# tyrosinase = test: Tyrosinase inhibition assay (intracellular tyrosinase, lysate of treated melanocytes, L‐DOPA); type: cell-based, human; details: cells treated 24 h, 475 nm, n = 3
# Protocol: The inhibition of tyrosinase activity was assessed according to the reported method. The 6‐well plates were incubated at 37°C with human melanocyte cells at a density of 2.5×10^5 cells per well in a humidified atmosphere (5% CO2) for 24 h. Subsequently, these cells were exposed to glabridin (0.00625%, V/V) as the positive control, along with other tested compounds. Following treatment, cells were incubated at 37°C for 24 h using identical conditions. After treatment, cells in each well were rinsed with a PBS buffer solution (500 µL) and lysed with a lysate buffer (100 µL containing 0.5% sodium deoxycholate) at approximately 0°C for 1 h. The resulting cell lysate was then centrifuged at 12 000 rpm at 4°C for 20 min. The protein concentration in the supernatant was quantified by a BCA Assay Kit (Beyotime Biotechnology, China). Samples were transferred to a 96‐well plate in a total volume of 100 µL ([…] of lysate supernatant and 20 µL of 0.1% L‐DOPA) and incubated for 60 min at 37°C. The absorbance was measured at 475 nm using a Synergy multimode reader (BioTek Corporation, USA).
# human melanocyte cells [2] = details: traditional skin‐lightening agent, at similar concentrations; general statement, no reference given; cited from earlier work
# human melanocyte cells [3] = test: MTT cytotoxicity / growth inhibition in human melanocytes; type: cell-based; details: 24 h, n = 3
# Protocol: as §1
# For cytotoxicity, evaluation of peptides on human melanocyte cells was assessed using the standard MTT assay. Cells were seeded in 96‐well plates at a density of 10 000 cells per well and incubated for 12 h under standard culture conditions. […] A negative control group (culture medium containing 10% Dimethyl sulfoxide (DMSO), v/v) was included. Post‐treatment, 0.5 mg/mL MTT reagent was added to each well, followed by 4 h of incubation at 37°C. Formazan crystals formed in viable cells were dissolved in 150 µL DMSO, and absorbance was measured at 490 nm using a Synergy multimode reader (BioTek, USA). Each concentration was tested in triplicate. Statistical significance was determined via one‐way ANOVA (GraphPad Prism 5). All experiments were conducted in triplicate (n = 3).
compound,measurement,setting,value
CC1(C)C=Cc2c(ccc3c2OC[C@@H](c2ccc(O)cc2O)C3)O1 [glabridin],inhibition of melanin production,"human melanocyte cells [1]; glabridin 0.00625% v/v, 24 h",strong inhibitory effect on melanin production
same,tyrosinase inhibition rate,"tyrosinase; glabridin 0.00625% v/v (positive control), L‐DOPA 60 min 37°C",approximately 14%
Oc1ccc(O)cc1 [hydroquinone],cytotoxicity,human melanocyte cells [2],exhibit cytotoxic effects
NC[C@H]1CC[C@H](C(=O)O)CC1 [tranexamic acid],change in cell viability,"human melanocyte cells [3]; tranexamic acid at higher concentrations (5 and 10 mg/mL), not statistically significant",A slight reduction in cell viability
same,"melanin reduction, single compounds","human melanocyte cells [1]; tranexamic acid 2.5 mg/mL, nonapeptide‐1 0.3% v/v, 24 h","melanin‐reducing effects, though not as strongly as CHP‐9 alone"
same,tyrosinase inhibition rate,"tyrosinase; tranexamic acid 2.5 mg/mL, L‐DOPA 60 min 37°C",10.71%
Cyclo(Gln‐Gly‐Pro‐Gln‐Gly‐Pro) (head to tail) [CHP‐9],cell viability,human melanocyte cells [3]; CHP‐9 across effective concentrations,> 90%
same,cytotoxicity,human melanocyte cells [3]; at tested concentrations (0.0781–10 mg/mL),noncytotoxic to human melanocytes
same,inhibitory effect on melanin production compared with glabridin,human melanocyte cells [1]; CHP‐9 1% versus glabridin 0.00625% v/v,comparable to glabridin
same,melanin content after treatment,"human melanocyte cells [1]; CHP‐9 1%, 24 h, OD 405 nm, mean ± SD, untreated control 30.90 ± 1.13 µg/mL",~23.51 µg/mL and 23.51 ± 1.14 µg/mL
same,tyrosinase inhibition rate,"tyrosinase; CHP‐9 1%, lysate with 0.1% L‐DOPA 60 min 37°C",28.57%
